Measured values as given in patent US9676715B2, “Bis-indolic derivatives, a process for preparing the same and their uses as a drug” (UNIVERSITE JOSEPH FOURIER, priority 2011, dated 2017).
≈ marks a conversion by molar mass, not a printed value.

Tests used:
[1] = test system: S. aureus ATCC 106414 (VISA); experiment: MIC, microdilution method (9.1); format: cell-based, Staphylococcus aureus; conditions: Staphylococcus aureus, read after 18 h, read-out: MIC
Protocol: (§1) The microdilution method recommended by the Clinical and Laboratory Standard Institute [M07-A8, Vol. 29, No. 2] was used. The activity of indolic compounds was tested against 29 bacterial strains belonging to 17 different species and 12 different genera (Staphylococcus, Streptococcus, Enterococcus, Listeria, Bacillus, Haemophilus, Escherichia, Klebsiella, Enterobacter, Serratia, Pseudomonas, and Acinetobacter). Bacterial inocula were prepared in Mueller Hinton broth (MH2, bioMérieux, Marcy L'Etoile, France), supplemented with 10% sheep blood for fastidious species (i.e., Streptococcus pneumoniae and Haemophilus influenzae). They were dispensed in 96 well microtiter plates (5×10^5 CFU/ml of final inoculum). Indolic compounds were added to the wells as to obtain two-fold serial concentrations (0.50-128 mg/L of final concentrations). Plates were incubated at 37° C. in ambient air, or at 37° C. in 5% CO2 enriched atmosphere for fastidious species. […] Drug-free cultures served as growth controls. Cultures receiving gentamicin, ciprofloxacin or cefotaxime served as positive controls.

[2] = test system: S. aureus ATCC 25923; experiment: MIC, microdilution method (9.1); format: cell-based, Staphylococcus aureus; conditions: Staphylococcus aureus, ATCC25923, read after 18 h, read-out: MIC
Protocol: as §1

[3] = test system: S. aureus ATCC 29213; experiment: MIC, microdilution method (9.1); format: cell-based, Staphylococcus aureus; conditions: Staphylococcus aureus, ATCC29213, read after 18 h, read-out: MIC
Protocol: as §1

[4] = test system: S. aureus ATCC 33592 (MRSA); experiment: MIC, microdilution method (9.1); format: cell-based, Staphylococcus aureus; conditions: Staphylococcus aureus, read after 18 h, read-out: MIC
Protocol: as §1

[5] = test system: S. aureus ATCC 6538; experiment: MIC, microdilution method (9.1); format: cell-based, Staphylococcus aureus; conditions: Staphylococcus aureus, ATCC6538, read after 18 h, read-out: MIC
Protocol: as §1

[6] = test system: S. aureus ATCC 9144; experiment: MIC, microdilution method (9.1); format: cell-based, Staphylococcus aureus; conditions: Staphylococcus aureus, ATCC9144, read after 18 h, read-out: MIC
Protocol: as §1

[7] = test system: S. aureus CIP 103428; experiment: MIC, microdilution method (9.1); format: cell-based, Staphylococcus aureus; conditions: Staphylococcus aureus, CIP103428, read after 18 h, read-out: MIC
Protocol: as §1

[8] = test system: S. aureus CIP 65.25 (MRSA); experiment: MIC, microdilution method (9.1); format: cell-based, Staphylococcus aureus; conditions: Staphylococcus aureus, read after 18 h, read-out: MIC
Protocol: as §1

[9] = test system: S. aureus CIP 65.6; experiment: MIC, microdilution method (9.1); format: cell-based, Staphylococcus aureus; conditions: Staphylococcus aureus, CIP65, read after 18 h, read-out: MIC
Protocol: as §1

[10] = test system: S. aureus SA-1199B; experiment: MIC, microdilution method (9.1); format: cell-based, Staphylococcus aureus; conditions: Staphylococcus aureus, SA1199B, 18 h
Protocol: as §1

[11] = test system: S. epidermidis ATCC 12228; experiment: MIC, microdilution method (9.1); format: cell-based, Staphylococcus epidermidis; conditions: Staphylococcus epidermidis, ATCC12228, read after 18 h, read-out: MIC
Protocol: as §1

[12] = test system: S. epidermidis CIP 103627; experiment: MIC, microdilution method (9.1); format: cell-based, Staphylococcus epidermidis; conditions: Staphylococcus epidermidis, CIP103627, read after 18 h, read-out: MIC
Protocol: as §1

[13] = test system: S. epidermidis CIP 81.55; experiment: MIC, microdilution method (9.1); format: cell-based, Staphylococcus epidermidis; conditions: Staphylococcus epidermidis, CIP81, read after 18 h, read-out: MIC
Protocol: as §1

[14] = test system: S. pneumoniae ATCC 6303; experiment: MIC, microdilution method (9.1); format: cell-based, Streptococcus pneumoniae; conditions: Streptococcus pneumoniae, ATCC6303, 10% sheep blood, 5% CO2, 18 h, read-out: MIC
Protocol: as §1

[15] = test system: S. agalactiae (group B) ATCC 12400; experiment: MIC, microdilution method (9.1); format: cell-based, Streptococcus agalactiae; conditions: Streptococcus agalactiae, ATCC12400, 18 h, read-out: MIC
Protocol: as §1

[16] = test system: S. pyogenes (group A) CIP 104226; experiment: MIC, microdilution method (9.1); format: cell-based, Streptococcus pyogenes; conditions: Streptococcus pyogenes, CIP104226, 18 h, read-out: MIC
Protocol: as §1

[17] = test system: S. mitis CIP 103335; experiment: MIC, microdilution method (9.1); format: cell-based, Streptococcus mitis; conditions: Streptococcus mitis, CIP103335, 18 h, read-out: MIC
Protocol: as §1

[18] = test system: E. faecium CIP 54.32; experiment: MIC, microdilution method (9.1); format: cell-based, Enterococcus faecium; conditions: Enterococcus faecium, CIP54, 18 h, read-out: MIC
Protocol: as §1

[19] = test system: E. faecalis ATCC 29212; experiment: MIC, microdilution method (9.1); format: cell-based, Enterococcus faecalis; conditions: Enterococcus faecalis, ATCC29212, 18 h, read-out: MIC
Protocol: as §1

[20] = test system: Acinetobacter baumanii ATCC 19606; experiment: MIC, microdilution method (9.1); format: cell-based; conditions: Acinetobacter baumannii, ATCC19606, 18 h, read-out: MIC
Protocol: as §1

[21] = test system: Bacillus subtilis CIP 5262; experiment: MIC, microdilution method (9.1); format: cell-based; conditions: CIP5262, 18 h, read-out: MIC
Protocol: as §1

[22] = test system: Enterobacter cloacae ATCC13047; experiment: MIC, microdilution method (9.1); format: cell-based; conditions: 18 h
Protocol: as §1

[23] = test system: Escherichia coli ATCC 25922; experiment: MIC, microdilution method (9.1); format: cell-based; conditions: ATCC25922, 18 h
Protocol: as §1

[24] = test system: Haemophilus influenzae ATCC 49766; experiment: MIC, microdilution method (9.1); format: cell-based; conditions: ATCC49766; Haemophilus influenzae ATCC 49766; 10% sheep blood, 5% CO2; 18 h; read-out: MIC
Protocol: as §1

[25] = test system: Klebsiella pneumoniae API ATCC 35657; experiment: MIC, microdilution method (9.1); format: cell-based; conditions: ATCC35657, 18 h, read-out: MIC
Protocol: as §1

[26] = test system: Listeria innocua CIP 80.11; experiment: MIC, microdilution method (9.1); format: cell-based; conditions: CIP80, 18 h, read-out: MIC
Protocol: as §1

[27] = test system: Pseudomonas aeruginosa CIP 5933; experiment: MIC, microdilution method (9.1); format: cell-based; conditions: CIP5933, 18 h, read-out: MIC
Protocol: as §1

[28] = test system: S. pneumoniae ATCC 49619; experiment: MIC, microdilution method (9.1); format: cell-based; conditions: Streptococcus pneumoniae, ATCC49619, 10% sheep blood, 5% CO2, 18 h
Protocol: as §1

[29] = test system: Serratia marcescens CIP 103551; experiment: MIC, microdilution method (9.1); format: cell-based; conditions: CIP103551, 18 h
Protocol: as §1

[30] = test system: HCT116 (human colon tumor); experiment: In vitro cytotoxicity; format: cell-based; conditions: read-out: % of cellular growth inhibition; for inhibition at 10 µM: HCT-116, 10^−5 M; for inhibition at 1 µM: HCT-116, 10^−6 M
Protocol: (§2) In vitro cytotoxicity was assayed on three cell lines—KB (human mouth carcinoma), MCR5 (human lung fibroblast) and HCT116 (human colon tumor). Results are presented in table IV as % of cellular growth inhibition in presence of 10^−5 M and 10^−6 M of the tested bis-indolic derivatives.

[31] = test system: KB (human mouth carcinoma); experiment: In vitro cytotoxicity; format: cell-based; conditions: read-out: % of cellular growth inhibition; for inhibition at 10 µM: 10^−5 M; for inhibition at 1 µM: 10^−6 M
Protocol: as §2

[32] = test system: MRC5 (human lung fibroblast); experiment: In vitro cytotoxicity; format: cell-based; conditions: read-out: % of cellular growth inhibition; for inhibition at 10 µM: 10^−5 M; for inhibition at 1 µM: 10^−6 M
Protocol: as §2

[33] = test system: HCT116 (human colon tumor); experiment: In vitro cytotoxicity; format: cell-based; conditions: HCT-116, HCT116, from 100 μM to 0.005 μM in DMSO, duplicate

Row | Compound | MIC [1] [µg/mL] | MIC [2] [µg/mL] | MIC [3] [µg/mL] | MIC [4] [µg/mL] | MIC [5] [µg/mL] | MIC [6] [µg/mL] | MIC [7] [µg/mL] | MIC [8] [µg/mL] | MIC [9] [µg/mL] | MIC [10] [µg/mL] | MIC [11] [µg/mL] | MIC [12] [µg/mL] | MIC [13] [µg/mL] | MIC [14] [µg/mL] | MIC [15] [µg/mL] | MIC [16] [µg/mL] | MIC [17] [µg/mL] | MIC [18] [µg/mL] | MIC [19] [µg/mL] | MIC [20] [µg/mL] | further results
1 | CC(C)(C)OC(=O)NCC(NC(=O)c1c[nH]c2cc(Br)ccc12)c1c[nH]c2ccc(Br)cc12 (stereo not shown) [Compound 3g, tert-Butyl(2-(5-bromo-1H-indol-3-yl)-2-(6-bromo-1H-indolyl-3-carboxamido)ethyl)carbamate] | 1 (≈ 1.74 µM) | 2 (≈ 3.47 µM) | 2 (≈ 3.47 µM) | 2 (≈ 3.47 µM) | 2 (≈ 3.47 µM) | 2 (≈ 3.47 µM) | 1 (≈ 1.74 µM) | 1 (≈ 1.74 µM) | 2 (≈ 3.47 µM) | 2 (≈ 3.47 µM) | 1 (≈ 1.74 µM) | 2 (≈ 3.47 µM) | 2 (≈ 3.47 µM) | 32 (≈ 55.5 µM) | 64 (≈ 111 µM) | 64 (≈ 111 µM) | 64 (≈ 111 µM) | > 128 | > 128 | > 128 | MIC [21]: 32 µg/mL (≈ 55.5 µM); MIC [22]: > 128 µg/mL; MIC [23]: > 128 µg/mL; MIC [24]: 64 µg/mL (≈ 111 µM); MIC [25]: > 128 µg/mL; MIC [26]: 128 µg/mL (≈ 222 µM); MIC [27]: > 128 µg/mL; MIC [28]: 32 µg/mL (≈ 55.5 µM); MIC [29]: > 128 µg/mL; inhibition at 10 µM [30]: 86 ± 2%; inhibition at 1 µM [30]: 9%; inhibition at 10 µM [31]: 98 ± 1%; inhibition at 1 µM [31]: 0%; inhibition at 10 µM [32]: 83 ± 10%; inhibition at 1 µM [32]: 0%; IC50 ([33]; first value): 5.48 µM; IC50 ([33]; second value): 6.06 µM
2 | CC(C)(C)OC(=O)NCC(NC(=O)c1c[nH]c2ccc(Br)cc12)c1c[nH]c2cc(Br)ccc12 (stereo not shown) [Compound 3h, tert-Butyl (2-(6-bromo-1H-indol-3-yl)-2-(5-bromo-1H-indolyl-3-carboxamido)ethyl)carbamate] | 1 (≈ 1.74 µM) | 1 (≈ 1.74 µM) | 1 (≈ 1.74 µM) | 2 (≈ 3.47 µM) | 1 (≈ 1.74 µM) | 1 (≈ 1.74 µM) | 2 (≈ 3.47 µM) | 1 (≈ 1.74 µM) | 2 (≈ 3.47 µM) | 2 (≈ 3.47 µM) | 1 (≈ 1.74 µM) | 2 (≈ 3.47 µM) | 1 (≈ 1.74 µM) | 32 (≈ 55.5 µM) | 32 (≈ 55.5 µM) | 32 (≈ 55.5 µM) | 32 (≈ 55.5 µM) | 32 (≈ 55.5 µM) | > 128 | > 128 | MIC [21]: 32 µg/mL (≈ 55.5 µM); MIC [22]: > 128 µg/mL; MIC [23]: > 128 µg/mL; MIC [24]: 16 µg/mL (≈ 27.8 µM); MIC [25]: > 128 µg/mL; MIC [26]: 32 µg/mL (≈ 55.5 µM); MIC [27]: > 128 µg/mL; MIC [28]: 32 µg/mL (≈ 55.5 µM); MIC [29]: > 128 µg/mL; inhibition at 10 µM [30]: 100 ± 3%; inhibition at 1 µM [30]: 0%; inhibition at 10 µM [31]: 100 ± 1%; inhibition at 1 µM [31]: 0%; inhibition at 10 µM [32]: 92 ± 1%; inhibition at 1 µM [32]: 0%; IC50 ([33]; first value): 3.33 µM; IC50 ([33]; second value): 4.11 µM
3 | CC(C)(C)OC(=O)NCC(NC(=O)c1c[nH]c2ccccc12)c1c[nH]c2cc(Br)ccc12 (stereo not shown) [Compound 3d, tert-Butyl (2-(6-bromo-1H-indol-3-yl)-2-(1H-indolyl-3-carboxamido)ethyl)carbamate] | 8 (≈ 16.1 µM) | 8 (≈ 16.1 µM) | 8 (≈ 16.1 µM) | 8 (≈ 16.1 µM) | 8 (≈ 16.1 µM) | 8 (≈ 16.1 µM) | 8 (≈ 16.1 µM) | 8 (≈ 16.1 µM) | 8 (≈ 16.1 µM) | 8 (≈ 16.1 µM) | 16 (≈ 32.2 µM) | 16 (≈ 32.2 µM) | 16 (≈ 32.2 µM) | 64 (≈ 129 µM) | 64 (≈ 129 µM) | 64 (≈ 129 µM) | 64 (≈ 129 µM) | 64 (≈ 129 µM) | > 128 | > 128 | MIC [21]: 64 µg/mL (≈ 129 µM); MIC [22]: > 128 µg/mL; MIC [23]: > 128 µg/mL; MIC [24]: 64 µg/mL (≈ 129 µM); MIC [25]: > 128 µg/mL; MIC [26]: 32 µg/mL (≈ 64.3 µM); MIC [27]: > 128 µg/mL; MIC [28]: 64 µg/mL (≈ 129 µM); MIC [29]: > 128 µg/mL; inhibition at 10 µM [30]: 73 ± 3%; inhibition at 1 µM [30]: 9%; inhibition at 10 µM [31]: 67 ± 3%; inhibition at 1 µM [31]: 0%; inhibition at 10 µM [32]: 73 ± 6%; inhibition at 1 µM [32]: 0%
